What was measured:
[1] = system: human umbilical vein ECs; experiment: EC tissue factor activity, Factor VIIa-dependent Factor Xa formation; type: cell-based
Protocol: (§1) Tissue factor activity of monolayers of ECs and MPs was determined (7) after incubation with EMAP II-derived peptides at 37° C. for 4-12 hrs by washing cultures with HEPES (10 MM; pH 7.4), NaCl (137 mM), KCl (4 mM), CaCl2 (3 mM), glucose (10 mM), bovine serum albumin (0.5 mg/ml), and addition of 0.5 ml of the same buffer along with purified human Factor VIIa (1 nM) and Factor X (200 nM) for 45 min at 37° C. Aliquots (0.05 ml) of the reaction mixture (one per well) were withdrawn at 15 min intervals, added to a buffer containing Tris (50 mM; pH 7.9), NaCl (175 mM), EDTA (5 mM) and bovine serum albumin (0.5 mg/ml; 0.05 ml), and the chromogenic substrate Spectrozyme Factor Xa (American Diagnositca, Inc., Greenwich Conn.; 0.01 ml; 2 mM). Cleavage of the substrate was monitored by the change in absorbance at 405 nm (BioKinetics Reader, Winooski, Vt.). Factor Xa concentration was determined by comparison with a standard curve generated with known amounts of purified human Factor Xa. Human, plasma-derived Factors VIIa and X were purified to homogeneity as described (31).
(§2) In Vitro Assays of EC, MP, and PMN Functions-Cell-associated tissue factor was assayed by its functional activity, using purified coagulation proteins, and tissue factor mRNA was detected by PCR. […] The concentration of Factor Xa was determined based on a standard curve generated with purified Factor Xa. […]

[2] = system: human MPs; experiment: MP tissue factor activity, Factor VIIa-dependent Factor Xa formation; type: cell-based
Protocol: as §1, §2

[3] = system: human MPs; experiment: Radioligand binding of 125I-[…] to MPs; conditions: excess / increasing concentrations of unlabelled competitor
Protocol: Radioligand binding studies were performed on human MPs plated in 96-well plates (5-6×10^4 cells/well). Cells were washed twice with Hanks balanced salt solution, and then Dulbecco's Modified Eagle Medium containing HEPES (25 mM; pH 7.4), penicillin/streptomycin (50 U/ml; 50 μg/ml), and bovine serum albumin-fatty acid free (0.5%; Sigma) were added (0.1 ml/well). Cultures were incubated at 4° C. for 2 hrs with ^125I-[…] alone or in the presence of unlabelled peptide/protein. Each well was washed four times over a period of 20 sec, and cell-associated radioactivity was eluted by an acidic buffer (HCl, 0.1 M, pH 2; NaCl, 0.1 M) at 4° C. for 5 min. During the elution period, there was no detachment of cells from the growth substrate. The conditions for incubation and washing used in the binding studies shown in FIG. 3 (2 hrs at 4° C.) were […] to allow binding of ^125I-[…] to reach an apparent maximum, even at the lowest tracer concentrations, and to remove unbound material by washing quickly so that <10% of the cell-bound radioactivity dissociated.

[4] = system: human PMNs; experiment: [Ca2+]i measurement in PMNs (fura-2); type: cell-based
Protocol: (§3) [Ca^2+1]i measurements. PMNs or MPs (2×10^7 cells in each case) were incubated with fura-2 AM (1 μM) and pluronic detergent (0.02%) for 12 min at room temperature, diluted sixfold, and incubated for a further 30 min at room temperature to allow for complete hydrolysis of the dye. Cells were then resuspended in HEPES-buffered saline at 5×10^5 cells/ml (32). For experiments using MPs, sulfinpyrazone (0.5 mM) was included at all steps to minimize both dye sequestration into intracellular organelles and dye efflux (33). Fluorescence of fura-2 was monitored at 37° C. in a thermostatically-controlled cuvette installed in a Perkin Elmer Model 650-40 fluorescense spectrophotometer. Calibration of [Ca^2+]i was performed as described (34).
(§4) For determination of [Ca^2+] in PMSs and MPs, cells (2×10^7 in each case) were incubated with fura-2 AM (1 um) and pluronci detergent (0.02%) at room temperature, diluted 6-fold, and incubated for a further 30 min at room temperature to allow for complete hydrolysis of the dye. Cells were then resuspended in HEPES-buffered saline at 5×10^5 cells/ml (32). For MPs, sulfinpyrazone (0.5 mM) was included at all steps to minimize both dye sequestration into intracellular organelles and dye efflux (33). Fluorescence of fura-2 was monitored at 37° C. in a thermostatically controlled cuvette installed in a Perkin Elmer model 650-40 fluorescence spectrophotometer. Calibration of [Ca^2+] was performed as described (34).

[5] = system: human MPs; experiment: [Ca2+]i measurement in MPs (fura-2); type: cell-based
Protocol: as §3
as §4, with “Calibration of [Ca^2+] was performed as described (34).” left out

Competition for binding of 125I-RIGRIVTAKY to MPs by unlabelled peptide/protein [3]: inhibition
Sequence: ASRLDLRIGRIVTAKY [residues #6-20 from EMAP II, Cys to Arg substitution at position #15, and a C-terminal Tyr]
Induction of tissue factor activity in ECs (Factor VIIa-dependent Factor X activation) [1]: did not demonstrate induction of tissue factor activity | Induction of tissue factor activity in MPs (Factor VIIa-dependent Factor X activation) [2]: did not demonstrate induction of tissue factor activity | Rise in [Ca2+]i in PMNs [4]: induced a rise in [Ca^2+]i | Rise in [Ca2+]i in MPs [5]: results in elevation of [Ca^2+]i

From patent publication US6734168B2, “Endothelial monocyte activating polypeptide II: a mediator which activates host response” (The Trustees of Columbia University in the City of New York, priority 1993, dated 2004)
